Twelve compounds from US20050070595A1, “Trioxane derivatives as antimalaria or anticancer compounds” (priority 2001, published 2005) can be followed below.

The experiment concerns chloroquine-resistant K1 strain of P. falciparum. Nature of the experiment: 48-h sensitivity assay, [3H]-hypoxanthine incorporation as an assessment of parasite growth. The format is cell-based. On the procedure:
The antimalarial activity of the new dimers was tested against the chloroquine-resistant K1 strain of P. falciparum. A single uncloned K1, chloroquine resistant strain of P. falciparum from Thailand was used. Parasites were maintained in continuous culture using the method of Trager and Jenson. (J. Parasitol, 1977, 63, […]). Cultures were grown in flasks containing human erythrocytes (2-5%) with parasitemia in the range of 1% to 10% suspended in RPMI 1640 medium supplemented with 25 mM HEPES and 32 mM NaHCO3, and 10% human serum (complete medium). Cultures were gassed with a mixture of 3% O2, 4% CO2 and 93% N2.
Antimalarial activity was assessed with an adaption of the 48-h sensitivity assay of Desjardins et al. (Antimicrob. Agents. Chemother., 1979, 16, 710-718) using [^3H]-hypoxanthine incorporation as an assessment of parasite growth. Stock drug solutions were prepared in 100% dimethylsulphoxide (DMSO) and diluted to the appropriate concentration using complete medium. Assays were performed in sterile 96-well microtitre plates, each plate containing 200 μl of parasite culture (2% parasitemia, 0.5% haematocrit) with or without 10 μl drug dilutions. Each drag was tested in triplicate and parasite growth was compared to control wells (which constituted 100% parasite growth). After 24-h incubation at 37° C., 0.5 μCi hypoxanthine was added to each well. Cultures were incubated for a further 24 h before they were harvested onto filter-mats, dried for 1 h at 55° C. and counted using a Wallac 1450 Microbeta Trilux Liquid scintillation and luminescence counter. IC50 values were calculated by interpolation of the probit transformation of the log dose—response curve.

[1] abbreviates: mean of the determinations, K1 strain, 48 h, read-out: Mean IC50.
[2] abbreviates: Plasmodium falciparum, K1, 48 h, mean of the determinations, K1 strain, 48 h, read-out: Mean IC50.
The mark [3] stands for this setting: single determinations (triplicate), K1 strain, 48 h, read-out: IC50.

Values joined by “and” are separate entries in the source; they are usually repeats but may differ in a detail not shown here. Identical values can stand only once. Like-named read-outs stand apart in the source and are kept apart here.

For “10β-(2-Hydroxyethyl)-deoxoartemisinin bis-ester (1,2)-dimer [PV30]”, the IC50 under setting [1] was 2.6 nM.
In the case of `CO[C@H]1O[C@@H]2O[C@@]3(C)CC[C@H]4[C@H](C)CC[C@@H]([C@H]1C)[C@@]24OO3` [Artemether, artemether, reference compound], the IC50 reads like this: under setting [2], 2.8 nM; under setting [3], 2 nM.
Regarding `C[C@@H]1CC[C@H]2[C@@H](C)C(=O)O[C@@H]3O[C@@]4(C)CC[C@@H]1[C@]32OO4` [Artemisinin, reference compound], the IC50 runs as follows: under setting [2], 12.3 nM; (Plasmodium falciparum, K1, 48 h, single determinations (triplicate), K1 strain, 48 h, read-out: IC50) 12.3 nM.
Turning to `CCN(CC)CCCC(C)Nc1ccnc2cc(Cl)ccc12` (stereo not shown) [Chloroquine, chloroquine, reference compound], the IC50 is, setting by setting: (Plasmodium falciparum, K1, 48 h) 190 nM; (Plasmodium falciparum, K1, 48 h, read-out: Mean IC50) 190 nM.
Regarding `C[C@H]1[C@@H](CCOC(=O)c2cccc(C(=O)OCC[C@H]3O[C@@H]4O[C@]5(C)CC[C@H]6[C@H](C)CC[C@@H]([C@H]3C)[C@@]46OO5)c2)O[C@@H]2O[C@]3(C)CC[C@H]4[C@H](C)CC[C@@H]1[C@@]24OO3` [PV31, 10β-(2-hydroxyethyl)-deoxoartemisininbis-ester(1,3)-dimer], the half-maximal inhibitory concentration (IC50) was 42.2 nM under setting [1]; 39.9 nM and 43.3 nM under setting [3].
On to `C[C@H]1[C@@H](CCOC(=O)c2ccc(C(=O)OCC[C@H]3O[C@@H]4O[C@]5(C)CC[C@H]6[C@H](C)CC[C@@H]([C@H]3C)[C@@]46OO5)cc2)O[C@@H]2O[C@]3(C)CC[C@H]4[C@H](C)CC[C@@H]1[C@@]24OO3` [PV32, 10-β-(2-Hydroxyethyl)-deoxoartemisinin bis-ester(1,4)-dimer], for which the IC50 runs as follows: under setting [1], 4.6 nM; under setting [3], 5.5 nM and 5.2 nM and 3 nM.
Regarding `C[C@H]1[C@@H](CCOC(=O)CCC(=O)OCC[C@H]2O[C@@H]3O[C@]4(C)CC[C@H]5[C@H](C)CC[C@@H]([C@H]2C)[C@@]35OO4)O[C@@H]2O[C@]3(C)CC[C@H]4[C@H](C)CC[C@@H]1[C@@]24OO3` [PV33], under setting [1], the IC50 was 1.8 nM.
As to `CC1CCC2C(C)C(CCOC(=O)CCCC(=O)OCCC3OC4OC5(C)CCC6C(C)CCC(C3C)C46OO5)OC3OC4(C)CCC1C32OO4` (stereo not shown) [PV35], the 50% inhibitory concentration (IC50) is, setting by setting: under setting [1], 2.4 nM; under setting [3], 2.6 nM and 3.1 nM and 1.6 nM.
As for `CC1CCC2C(C)C(CCOP(=O)(OCCC3OC4OC5(C)CCC6C(C)CCC(C3C)C46OO5)Oc3ccccc3)OC3OC4(C)CCC1C32OO4` (stereo not shown) [PV37], under setting [1], the IC50 worked out at 0.5 nM.
In the case of `C[C@H]1[C@@H](CCOCc2ccc(COCC[C@H]3O[C@@H]4O[C@]5(C)CC[C@H]6[C@H](C)CC[C@@H]([C@H]3C)[C@@]46OO5)cc2)O[C@@H]2O[C@]3(C)CC[C@H]4[C@H](C)CC[C@@H]1[C@@]24OO3` [PV41], the IC50 reads like this: under setting [1], 2.4 nM; under setting [3], 2.6 nM and 3.1 nM and 1.6 nM.
For `C[C@H]1[C@@H](CCOCc2cccc(COCC[C@H]3O[C@@H]4O[C@]5(C)CC[C@H]6[C@H](C)CC[C@@H]([C@H]3C)[C@@]46OO5)c2)O[C@@H]2O[C@]3(C)CC[C@H]4[C@H](C)CC[C@@H]1[C@@]24OO3` [PV43], the IC50 under setting [1] was 2.9 nM.
Same read-out and setting: as for `C[C@H]1[C@@H](CCOCc2ccccc2COCC[C@H]2O[C@@H]3O[C@]4(C)CC[C@H]5[C@H](C)CC[C@@H]([C@H]2C)[C@@]35OO4)O[C@@H]2O[C@]3(C)CC[C@H]4[C@H](C)CC[C@@H]1[C@@]24OO3` [PV45], the figure is 2.7 nM.

As a reminder, the IC50 is the concentration that inhibits the measured activity by half.
